The values below come from patent publication US10758609B2, “Cross-reactive T-cell epitopes of HIV, SIV, and FIV for vaccines in humans and cats” (priority 2015, dated 2020).

Assay [1] concerns PBMC from FIV-vaccinated cats. Kind of assay: Feline IL2 ELISpot of PBMC from vaccinated cats. The format is cell-based, cat. The following applies: FIV peptides. As to the method:
(§1) IFNγ and IL2 ELISpot analyses were performed using feline IFNγ ELISpot and feline IL2 ELISpot kits (R&D Systems, Cat# SEL764 and SEL1890) as described. The threshold is defined as ≥50 spot forming units (SFU) per 1×10^6 PBMC when counted with MVS ELISpot Reader (MVS Pacific, LLC). Each result is an average of the duplicate samples after subtraction of the average value of the media controls.
(§2) Concurrently, the overlapping peptide pools of FIV structural/enzyme proteins were used to stimulate PBMC and T cells from FIV-vaccinated cats. These cats were vaccinated with prototype dual-subtype FIV vaccine which was the prototype to our commercial FIV vaccine (Coleman et al., 2014). The feline assays (Example 1) equivalent to those of human assays (Sanou et al., 2013; Roff et al., 2015) were used except for ICS analysis. In place of ICS for cytolysin/cytotoxins, IL2 ELISpot analysis was performed. […] The results for FIV-vaccinated cats included IFNγ and IL2 productions and CD3^+CD4+ and CD3^+CD8^+ T-cell proliferation (Table 9, the second set of results).
(§3) The feline IFNγ and L2 ELISpot analyses of PBMC to FIV MAPs and peptides were performed as previously described (Abbott et al. (2012)) using feline IFNγ modular kit (R&D Systems, Minneapolis, Minn.) and feline IL2 modular kit (R&D Systems). All results shown in the figures (FIGS. 8A-1, 8B-1, 8A-2, 8B-2, 8A-3, 8B-3) are after subtracting the average value of the results from all control cats.
(§4) The second parameter evaluated was the ability of the peripheral blood mononuclear cells (PBMC) from vaccinated and control cats to produce IL2 and interferon-γ (IFNγ) proteins in responses to FIV MAPs and peptides (FIGS. 8A-1, 8A-2, 8A-3, 8B-1, 8B-2, 8B-3) using feline IL2 and IFNγ ELISpot assays (Aranyos et al. (2016); Abbott et al. (2012)). IL2 enhances the proliferation of FIV-specific CD4^+ T cells and CD8^+ T cells. IFNγ is known enhance the FIV-specific CTL activities in vaccinated cats (Abbas et al. (2015)).

The subject of assay [2] is feline CD3^+CD4^+ T cells. Put plainly: CFSE-based feline CD3+CD4+ T-cell proliferation. Details: species or system cat. The following applies: FIV peptides; FIV-vaccinated cats. As to the method: (§5) Carboxyfluorescein diacetate succinimide ester (CFSE)-proliferation was performed according to the manufacturer's protocol (Invitrogen, Grand Island, N.Y.) and processed using a previously described modification. The modification consisted of 2.5×10^5 CFSE-labeled feline PBMC stimulated for 5 days (37° C., 5% CO2) with 4 μg/mL peptide in culture media (RPMI medium 25 µg/mL gentamycin, and 10% heat-inactivated fetal bovine serum (FBS)). Peptide pools consisted of 3-5 overlapping peptides of 4 μg/mL each. The antibodies used for flow cytometry based proliferation analysis consisted of murine anti-feline (Fe) CD3 monoclonal antibody (MAb clone kindly provided by Drs. Yorihiro Nishimura and Takayuki Miyazawa; described in [32]) combined with secondary goat anti-mouse IgG3-APC/CY7 MAb (SouthernBiotech, Birmingham, Ala.; Cat#1100-19); and murine anti-FeCD4-PE MAb (SouthernBiotech, Cat#8130-09); and murine anti-FeCD8 MAb (MAb clone kindly provided by Dr. Nazareth Gengozian, described in [33]) with secondary goat anti-mouse IgG2a-PE/CY7 (Southern Biotech, Cat#1080-17). The murine anti-B220-APC MAb for detecting feline B cells (SouthernBiotech, Cat#1665-11) and previously described MAbs for CFSE were used for FACS phenotyping. Both FACS phenotyping and CFSE-proliferation analyses were performed with BD LSRII and FACSDiva™ Software (BD Biosciences, San Jose, Calif.). The final value for each sample was derived after subtraction of the average value of the media controls using a positive threshold of ≥1 CFSE^low.
as §2
(§6) Carboxyfluorescein diacetate succinimide ester (CFSE)-proliferation analysis was according to the manufacturer's protocol (Invitrogen-Fisher, Carlsbad, Calif.) and processed as previously described (Roff et al. (2015)) using the following modifications: anti-feline CD3 antibody ((clone NZM1), a generous gift from T. Miyazawa (Univ. of Tokyo, Japan)) in combination with APC-conjugated anti-mouse IgG3 (Southern Biotech, Birmingham, Ala.), PE-conjugated anti-feline CD4 antibody (Southern Biotech), and anti-feline CD8 antibody (gift from N. Gengozian, University of Tennessee (Gengozian et al. (1997))) in combination with PE/Cy7-conjugated anti-mouse IgG2b (Southern Biotech) to detect the proliferation of feline CD3^+CD4+ T cells and feline […]. All results shown in the figures (FIGS. 7A-1, 7B-1, 7A-2, 7B-2, 7A-3, 7B-3) are after subtracting the average value of each results from all control cats. The threshold of CFSE proliferation is ≥0.5 CFSE^low. […]

For assay [3], the system named is feline CD3^+CD8^+ T cells. Kind of assay: CFSE-based feline CD3+CD8+ T-cell proliferation. Details: species or system cat. The following applies: for CD8^+ T (T-cell proliferation), frequency of responders: FIV peptides. As to the method:
as §5, §2, §6

The test system of assay [4] is PBMC from FIV-vaccinated cats. Put plainly: Feline IFNγ ELISpot of PBMC from vaccinated cats. It counts as cell-based, cat. Particulars: for IFNγ, frequency of responders: FIV peptides, FIV-vaccinated cats (prototype dual-subtype vaccine). As for the experimental part: as §1, §2, §3, §4
Assay [5] relates to FIVFC1. Put plainly: FIV enhancement and suppression (E/S) analysis of in vitro FIV infection of feline PBMC. The format is cell-based, feline immunodeficiency virus. The following applies: FIV peptides; in vitro FIV infection of uninfected cat PBMC. As to the method:
FIV viral enhancement or suppression was determined using a 48-well modification of the method described for detecting FIV enhancing activity of IFNγ and FIV suppressive activity of IFNα [37]. […] MAP1c contained four branched chains of peptide Fp4-3. T-cell mitogen concanavalin A (ConA) at 4 μg/mL was used as an infection enhancing control. Six hours after the culturing with peptide, MAP, or ConA, varying dilutions of FIVFC1 were added to the wells. Seventy-two hours later the cells were re-cultured in fresh culture media with ConA-stimulated autologous PBMC (0.25-0.5×10^6) using the same amount of corresponding peptide, MAP, ConA or media. On Day 7, 10, and 13 of culture, 0.5 mL of culture fluid was collected and 0.5 mL of fresh media added to maintain a consistent volume. The harvested culture samples were analyzed for FIV titer using the previously described RT assay. The results are shown as the end-point dilution titer from two studies using PBMC from different SPF donors.
Statistical analysis. The statistically significant differences between the end-point dilution titers of the peptide or MAP culture samples and either the virus control samples or specific MAP culture samples were calculated using a paired Student t-test with a two-tailed distribution (SigmaPlot version 11.0). Statistical comparisons between pre and post-vaccination(s) were similarly performed. The comparison was considered statistically significant when p<0.05.

Where [6] appears, read: cats of Group 1, MAP Vaccine Trial 1 (FIG. 3).

“RAWYLEALGKLAAIKAK [Fp10-2/3, overlapping peptide of MAP6]”: the “IL2, frequency of responders” value in assay [1] is reported as “+++ (40.1%-54% (+++))”. For the same sequence, the “CDC4^+ T (T-cell proliferation), frequency of responders” value in assay [2] was “— (0%-1.4%(—))”. Besides, the “CD8^+ T (T-cell proliferation), frequency of responders” value in assay [3] (FIV-vaccinated cats) is recorded as “— (0%-1.4%(—))”. Besides, in assay [4], the “IFNγ, frequency of responders” value was “— (0%-1.4%(—))”. Besides, the “FIV Test E/S (enhancer/suppressor analysis)” value in assay [5] was “↓”.
KKKSGKWRLIDFRVLNKL [FRT3-3/4]: the “IL2, frequency of responders” value in assay [1] is “++++ (>54% (++++))”. Also, the “CDC4^+ T (T-cell proliferation), frequency of responders” value in assay [2] is listed as “— (0%-1.4%(—))”. Also, in assay [3] (FIV-vaccinated cats), the “CD8^+ T (T-cell proliferation), frequency of responders” value is “+++ (40.1%-54% (+++))”. The “Responder frequency in CD8+ T-cell proliferation” value in assay [3] (FIV-vaccinated cats, in vitro analyses (Table 9)) is recorded as 44.4%. Further, the “% CD8+ T-cell CFSE^low over % CD4+ T-cell CFSE^low ratio (CD8/CD4 response ratio)” value in assay [3] (setting [6]) is reported as 9. In addition, the “IFNγ, frequency of responders” value in assay [4] is on record as “+++ (40.1%-54% (+++))”. Also, the IFNγ production in assay [4] (setting [6]) is 531 SFU/10^6 PBMC. Besides, the “FIV Test E/S (enhancer/suppressor analysis)” value in assay [5] was “↓”.
